Measurements from patent publication US11576987B2, “Compositions and methods of treating melanoma” (UNIVERSITY OF IOWA RESEARCH FOUNDATION, priority 2016, dated 2023).
Counter-ions that a name gives are not always drawn.

Tests used:
[1] = tested on: MCR1 expression; test: Pharmacological enhancement of MCR1 expression in human melanoma cells by drug incubation; type: cell-based; settings: human melanoma cells, incubation with drug
From the text: Melanoma if detected early can be cured by surgery, but metastatic melanoma is lethal. New therapies (e.g., immunotherapy; BRAF inhibition, BRAFi) and combinations extend life, but low response rates, acquired drug resistance, and serious side effects are major challenges to improving outcomes for disseminated disease (5 y survival 17%). Peptide-based radionuclide therapy targeted to the melanocortin-receptor type 1 (MCR1-RT) has long been considered a promising alternative; and MCR1-RT has achieved complete responses in mouse models (B16). However, MCR1 expression is heterogeneous/low in human melanoma, and as a result, no previous MCR1-RT study has employed successfully human melanoma cell xenografts. […] This introduces innovative Pb-specific chelator combined with a “click-cyclized” peptide (PSC-C-MCR1) to improve tumor:kidney ratio of radionuclide uptake 7-fold. An effective therapy for metastatic melanoma is developed that combines MCR1-RT with pharmacological agents (PBA; BRAFi/MEKi; HDACi) that enhance MCR1 expression.
Melanoma is the fastest growing cancer incidence in the United States. Surgery combined with radiation can be curative at early stages. However, metastatic melanoma is almost uniformly fatal (5-yr survival 17%). Recent breakthrough targeted MAPKi therapies (e.g., BRAFi) and immunotherapies (e.g., PD-1 inhibitors) have improved outcomes, but low response rates, acquired drug resistance, and adverse side effects limit quality of life for metastatic melanoma patients. For example, approval of immune-checkpoint inhibitor ipilimumab was based on an improvement in overall survival of only 3.7 months (overall response <15%). Combination immunotherapies have improved response (up to 61%), but grade 3/4 adverse events (up to 55%) often lead to therapy discontinuation (up to 36%). For targeted therapies, BRAF inhibitor vemurafenib was approved based on overall survival at 6 months of 84% vs 64% in the control arm (dacarbazine). Combining BRAFi with MEK inhibitors (MEKi) has led to modest improvements, yet recurrence is virtually inevitable. The mechanisms of acquired drug resistance are complex, and include altered/alternative oncogenic pathways; tumor heterogeneity; and enhanced DNA repair. Melanocortin-receptor type 1 targeted radionuclide therapy (MCR1-RT) has long been considered a promising alternative treatment for melanoma; and MCR1-targeted α-particle therapy (^212Pb) has achieved complete responses in mice bearing mouse (B16) tumors that highly express MCR1. However, these studies have been confined primarily to mouse melanoma (B16) cells because MCR1 expression is heterogeneous/low in human melanoma.
Combination therapies for metastatic melanoma are emerging as common practice (e.g., BRAFi plus MEK; and combination immunotherapies), but melanoma almost invariably develops resistance. MCR1-RT has long been considered a promising alternative, but previous therapy studies have been limited to the use of B16 mouse melanoma cells that highly express the MCR1 protein, because native MCR1 expression in human melanoma is heterogeneous/low.

[2] = tested on: MC1R expression; test: Real-time PCR analysis of MC1R expression in melanoma cells; type: cell-based, human; settings: substantiated by flow cytometry and radiopeptide binding
Procedure: FIG. 10. Real-time PCR analysis of MC1R expression in A2058 and MEWO melanoma cells. A2058 cells were exposed to BRAFi GSK2118436, MEKi GSK1120212 and HDACi PBA for 24 h. Similarly, MEWO cells were treated with PBA and SAHA. Total RNA was isolated and reverse transcripted to cDNA. Real-time PCR was performed using 50 ng of each cDNA sample with labeled primer VIC-MC1R and FAM-NADPH. mRNA fold changes were calculated by ΔΔCt method and expressed as (n=3; Mean±SEM).
qPCR measurements are included to measure the change in MCR1 mRNA with changes in the concentration and incubation time for each drug and combinations (FIG. 10). These experiments are carried out as in FIG. 10 according to manufacturers' protocols, cells are seeded into 6-well plates until ˜80% confluent. After drug treatments, total RNA is isolated (Qiagen RNeasy Mini Kit). 1 μg of total RNA from each cell sample is used for reverse transcription using a high capacity reverse transcription kit (Applied Biosystem). cDNA samples are kept at −80° C. until use. Upon use, cDNA templates are employed in the qRT-PCR using a Taqman Gene Expression Assay for human MC1R (Assay ID: Hs00267167_s1). Human 18S (Assay ID: Hs99999901_s1) and human GAPDH (Assay ID: Hs03929097_g1) are used as housekeeping gene controls. […] Reactions are carried out in Applied Biosystem 7900HT. mRNA level is calculated by comparative ΔΔCt method.

[3] = PBA co-administration: kidney and tumor uptake of [203Pb]DOTA-MCR1; type: in vivo, mice; settings: PBA 120 mg/kg co-administered i.v. or i.p., 2 h p.i.
Procedure: FIGS. 14A-14B. […] Results are ID %/g tissue±SD; **P<0.01; ****P<0.0001. (B Right) Pre-administered of PBA (i.p. 60 mg/kg) and BRAFi (vemurafenib; p.o. 5 mg/kg) 3 h prior to tail vein injection of 13 MBq [^203Pb]DOTA-MCR1 in human (A2058) melanoma-bearing athymic nu/nu mice (SPECT image 1 h p.i.); (B Left) An identical animal was administered an identical dose of [^203Pb]DOTA-MCR1 without PBA/BRAFi (saline). Images were identically processed and analyzed using Inveon Workplace software (identical contrast, intensity, etc.).
PBA relieves ER-stress through nonspecific binding to misfolded proteins in the ER. Thus, it was hypothesized that co-injection could inhibit peptide uptake in kidneys in the same fashion as amino acid co-infusions used clinically. This is reasonable because the megalin-cubulin system for reuptake and recirculation of nutrients in the proximal and distal tubules involves nonspecific binding and endocytosis of proteins, amino acids, and nutrients. results support the hypothesis that co-injection of PBA can serve to reduce kidney accumulation of radiopeptides in the kidneys (FIGS. 14A-B).

[4] = tested on: metastatic melanoma; settings: cited from earlier work

O=C(O)CCCc1ccccc1 [PBA, 4-phenylbutyric acid, sodium salt]
enhancement of MCR1 expression [1]: up to 8 fold
MCR1 expression by RT-PCR [2]: Enhanced expression of MCR1
kidney uptake of [203Pb]DOTA-MCR1 [3]: significantly blocked kidney uptake
tumor accumulation of [203Pb]DOTA-MCR1 [3]: did not affect tumor accumulation
tolerated dose in patients [4]: up to 27 g/day
